Data taken from patent publication US7022736B2, “Enzyme inhibitors” (Istituto Di Ricerche Di Biologia Molecolare P Angeletti SpA, priority 1998, dated 2006).

target: T1, HCV RdRp (NS5B RNA-dependent RNA polymerase) (Hepatitis C virus genotype 1b, UniProt P26663); test: Inhibition of hepatitis C virus RdRp (poly(A)/oligo(U), [3H]UTP incorporation); type: biochemical; conditions: Tables I-VIII; 20 nM NS5B, 1 hour at 22° C.; read-out: IC 50 (μM), HCV-polymerase
T1 construct: The HCV NS5B protein is the viral RdRp; made in house; host or cells: insect cells infected with recombinant baculovirus
T1 sequence (P26663 2420-3010): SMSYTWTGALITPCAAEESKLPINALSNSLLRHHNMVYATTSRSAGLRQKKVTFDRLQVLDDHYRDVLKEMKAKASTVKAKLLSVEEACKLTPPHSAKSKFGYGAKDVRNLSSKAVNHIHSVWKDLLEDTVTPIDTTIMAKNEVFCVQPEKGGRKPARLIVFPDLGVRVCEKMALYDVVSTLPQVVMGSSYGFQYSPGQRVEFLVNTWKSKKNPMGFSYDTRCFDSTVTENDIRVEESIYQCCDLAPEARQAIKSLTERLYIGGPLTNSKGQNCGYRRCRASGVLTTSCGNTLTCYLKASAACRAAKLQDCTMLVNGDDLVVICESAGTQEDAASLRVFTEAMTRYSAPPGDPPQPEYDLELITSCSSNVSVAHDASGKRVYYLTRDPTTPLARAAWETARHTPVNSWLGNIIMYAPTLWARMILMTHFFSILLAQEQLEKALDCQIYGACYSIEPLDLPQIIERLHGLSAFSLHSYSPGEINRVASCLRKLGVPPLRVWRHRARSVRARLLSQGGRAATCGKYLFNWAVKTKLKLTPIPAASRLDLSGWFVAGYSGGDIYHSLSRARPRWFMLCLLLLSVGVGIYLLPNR
Experimental: In initial tests, the compounds were tested to see if they were effective as inhibitors of the RNA-dependent RNA polymerase (RdRp) of hepatitis C virus (HCV). The HCV NS5B protein is the viral RdRp; compounds capable of interfering with the activity of this enzyme are thus expected to block viral replication.
Test for Inhibition of Hepatatis C Virus RdRp
WO96/37619 describes the production of recombinant HCV RdRp from insect cells infected with recombinant baculovirus encoding the enzyme. […] The reference describes a polymerisation assay using poly (A) as a template and oligo (U) as a primer. Incorporation of tritiated UTP is quantified by measuring acid-insoluble radioactivity. The present inventors have employed this assay to screen the various compounds described above as inhibitors of HCV RdRp and other virally encoded polymerases.
Incorporation of radioactive UMP was measured as follows. The standard reaction (100 μl) was carried out in a buffer containing 20 mM tris/HCl pH 7.5, 5 mM MgCl2, 1 mM DTT, 50 mM NaCl, 1 mM EDTA, 2 OU Rnasin (Promega), 0.05% Triton X-100, 1 μCi[^3H] UTP (40 Ci/mmol,NEN), 10 μM UTP and 10 μg/ml poly (A). Oligo (U)12 (1 μg/ml, Genset) was added as a primer. The final NSSB enzyme concentration was 20 nM. After 1 hour incubation at 22° C. the reaction was stopped by adding 100 μl of 20% TCA and applying samples to DE81 filters. The filters were washed thoroughly with 5% TCA containing 1M Na2HPO4/NaH2PO4, pH 7.0, rinsed with water and then ethanol, air dried, and the filter-bound radioactivity was measured in the scintillation counter. By carrying out the reaction in the presence of various concentrations of each of the compounds set out above it was possible to determine IC50 values for each compound with the formula: % residual activity=100/(1+[I]/IC50)^s where [I] is the inhibitor concentration and “s” is the slope of the inhibition curve. Test for Inhibition of Hepatitis B Virus Polymerase

Compound | IC50
N#Cc1cccc(COc2cccc(C(=O)C=C(O)C(=O)O)c2)c1 [Example 28] | 6.2 µM
N#CCCCCn1cccc1C(=O)C=C(O)C(=O)O [Example 174] | 13.4 µM
O=C(O)C(O)=CC(=O)c1cccc(NCc2ccccc2)c1 [Example 12] | 16.7 µM
O=C(O)C(O)=CC(=O)c1ccccc1OCC1CCCCC1 [Example 9] | 51 µM
O=C(O)C(O)=CC(=O)c1cc2c(s1)-c1ccccc1CC2 [Example 204] | 11 µM
O=C(O)C(O)=CC(=O)c1cccc(OCc2cc(C(=O)O)ccc2Cl)c1 [Example 98] | 1 µM
O=C(O)C(O)=CC(=O)c1ccc(N2CCc3ccccc3C2)s1 [Example 215] | 15.3 µM
CS(=O)(=O)Nc1cccc(C(=O)C=C(O)C(=O)O)c1 [Example 75] | 19.2 µM
O=C(O)C(O)=CC(=O)c1ccc(Cl)cc1 [Example 166] | 20 µM
COc1ccccc1C(=O)C=C(O)C(=O)O [Example 17] | 11.6 µM
O=C(O)C(O)=CC(=O)c1cccc(OCc2ccc(-c3ccccc3)cc2)c1 [Example 96] | 50 µM
O=C(O)C(O)=CC(=O)c1cccc(S(=O)(=O)Nc2ccccc2)c1 [Example 144] | 14 µM
Cc1cc(C)c(C(=O)C=C(O)C(=O)O)s1 [Example 192] | 8.2 µM
CC1(C(=O)C=C(O)C(=O)O)CC1 [Example 239] | 9.4 µM
N#Cc1ccc(C(=O)Nc2cccc(C(=O)C=C(O)C(=O)O)c2)cc1 [Example 68] | 30 µM
N#CCCCn1cccc1C(=O)C=C(O)C(=O)O [Example 173] | 21 µM
O=C(O)C(O)=CC(=O)c1cccc(OCc2cccc3ccccc23)c1 [Example 132] | 0.67 µM
Cc1cccc(COc2cccc(C(=O)C=C(O)C(=O)O)c2)c1F [Example 86] | 2.05 µM
O=C(O)C(O)=CC(=O)c1ccc(N2CCCCC2)s1 [Example 200] | 8.2 µM
O=C(O)C(O)=CC(=O)c1cccc(OCc2cc(-c3ccccc3)on2)c1 [Example 103] | 6 µM
O=C(O)C(O)=CC(=O)c1cccc(Cc2ccc(F)cc2)c1 [Example 46] | 30.1 µM
O=C(O)C(O)=CC(=O)c1cccc(NS(=O)(=O)c2ccc(Cl)c(Cl)c2Cl)c1 [Example 125] | 0.17 µM
O=C(O)C(O)=CC(=O)c1cccc(-c2ccccc2)c1 [Example 3] | 27.9 µM
O=C(O)C(O)=CC(=O)c1cccc(NS(=O)(=O)c2c(Cl)cc(C(F)(F)F)cc2Cl)c1 [Example 140] | 1 µM
O=C(O)C(O)=CC(=O)c1cccc(NS(=O)(=O)c2cc(Cl)cc(Cl)c2O)c1 [Example 127] | 0.3 µM
O=C(O)C(O)=CC(=O)c1cccc(Cn2nc3ccccc3n2)c1 [Example 153] | 19 µM

Compound | IC50
O=C(O)C(O)=CC(=O)c1cccn1Cc1cccc(F)c1 [Example 181] | 30 µM
O=C(O)C(O)=CC(=O)c1cccc(OCc2ccccc2-c2ccccc2)c1 [Example 97] | 2.8 µM
O=C(O)C(O)=CC(=O)c1cccn1Cc1ccc(O)cc1 [Example 179] | 12.8 µM
O=C(O)C(O)=CC(=O)c1cccc(COc2ccccc2)c1 [Example 110] | 30 µM
O=C(O)C(O)=CC(=O)c1ccsc1Cc1ccc(F)cc1 [Example 228] | 17.8 µM
O=C(O)C(O)=CC(=O)c1cccc(OCc2ccsc2C(=O)O)c1 [Example 84] | 0.95 µM
O=C(O)C(O)=CC(=O)c1cccn1Cc1ccc2ccccc2c1 [Example 188] | 12.7 µM
N#CCCCOc1cccc(OCCCC#N)c1C(=O)C=C(O)C(=O)O [Example 171] | 12 µM
O=C(Nc1ccccc1)Nc1cccc(C(=O)C=C(O)C(=O)O)c1 [Example 80] | 3 µM
N#Cc1ccc(Cn2cccc2C(=O)C=C(O)C(=O)O)cc1 [Example 183] | 32 µM
O=C(O)C(O)=CC(=O)c1cccc(Cn2nnc3ccccc32)c1 [Example 154] | 30 µM
O=C(O)C(O)=CC(=O)c1cccc(NS(=O)(=O)CCCCl)c1 [Example 134] | 23 µM
O=C(O)C(O)=CC(=O)c1ccsc1Sc1ccc(F)cc1 [Example 234] | 14.5 µM
O=C(O)C(O)=CC(=O)c1cccc(NS(=O)(=O)c2ccc(F)c(Cl)c2)c1 [Example 143] | 0.45 µM
N#Cc1ccccc1COc1ccccc1C(=O)C=C(O)C(=O)O [Example 65] | 45 µM
N#Cc1ccc(-c2ccccc2)cc1COc1cccc(C(=O)C=C(O)C(=O)O)c1 [Example 116] | 0.3 µM
O=C(O)C(O)=CC(=O)c1cccn1CC1CCCC1 [Example 175] | 25 µM
O=C(O)C(O)=CC(=O)c1ccccc1/C=C/c1ccccc1 [Example 55] | 10.8 µM
Cc1ccccc1COc1cccc(C(=O)C=C(O)C(=O)O)c1 [Example 91] | 6.2 µM
N#CCCCOc1ccc(/C=C/c2ccccc2)cc1C(=O)C=C(O)C(=O)O [Example 57] | 2.1 µM
O=C(O)C(O)=CC(=O)c1cccc(NS(=O)(=O)c2ccccc2)c1 [Example 67] | 16 µM
COc1cccc(C(=O)C=C(O)C(=O)O)c1 [Example 60] | 40 µM
CCOC(=O)c1ccccc1S(=O)(=O)Nc1cccc(C(=O)C=C(O)C(=O)O)c1 [Example 128] | 24 µM
O=C(O)C(O)=CC(=O)C1(c2ccccc2)CCN(C(=O)N(c2ccccc2)c2ccccc2)CC1 [Example 249] | 60 µM
O=C(O)C(O)=CC(=O)c1cccc(OCc2ccc(F)cc2Cl)c1 [Example 87] | 2.3 µM

Continued by falling IC50, values first:

IC50 | Compound
93 µM | O=C(O)C(O)=CC(=O)c1cccn1Cc1ccc(F)cc1 [Example 180]
80 µM | O=C(O)C(O)=CC(=O)c1ccsc1Cc1cccc(F)c1 [Example 229]
36 µM | O=C(O)C(O)=CC(=O)c1cccn1CCCc1ccc(F)cc1 [Example 187]
28 µM | O=C(O)C(O)=CC(=O)c1cccc(NS(=O)(=O)c2ccc(-c3ccccc3)cc2)c1 [Example 124]
26 µM | N#Cc1cccc(COc2ccccc2C(=O)C=C(O)C(=O)O)c1 [Example 26]
25.3 µM | CCCCCOc1ccccc1C(=O)C=C(O)C(=O)O [Example 59]
20.6 µM | Cn1cc(C(=O)C=C(O)C(=O)O)cc1Cc1cccc(F)c1 [Example 221]
20 µM | Cc1csc2sc(C(=O)C=C(O)C(=O)O)c(C)c12 [Example 201]
17.9 µM | O=C(O)C(O)=CC(=O)c1cccn1CC1CCCCC1 [Example 178]
17 µM | C=CCOc1cccc(C(=O)C=C(O)C(=O)O)c1 [Example 5]
17 µM | O=C(O)C(O)=CC(=O)C1(c2ccccc2)CCN(S(=O)(=O)c2ccc(Cl)c(Cl)c2)CC1 [Example 250]
16.6 µM | O=C(O)C(O)=CC(=O)c1ccccc1N(Cc1ccccc1)Cc1ccccc1 [Example 42]
15 µM | O=C(O)C(O)=CC(=O)c1ccsc1Cc1cccs1 [Example 227]
15 µM | Cc1cc(C)c(S(=O)(=O)Nc2cccc(C(=O)C=C(O)C(=O)O)c2)c(C)c1 [Example 146]
10 µM | CCCCOc1ccccc1C(=O)C=C(O)C(=O)O [Example 52]
8.6 µM | O=C(O)C(O)=CC(=O)c1ccsc1Cc1ccccc1F [Example 230]
5.8 µM | O=C(O)C(O)=CC(=O)c1cccc(OCc2cccc(F)c2)c1 [Example 94]
2.3 µM | Cc1cc(Cl)cc(Cl)c1S(=O)(=O)Nc1cccc(C(=O)C=C(O)C(=O)O)c1 [Example 150]
2.3 µM | N#CCCCOc1ccc(Br)cc1C(=O)C=C(O)C(=O)O [Example 54]
1.1 µM | O=C(O)C(O)=CC(=O)c1cccc(NS(=O)(=O)c2ccc(F)cc2Cl)c1 [Example 138]
0.78 µM | O=C(O)C(O)=CC(=O)c1cccc(NS(=O)(=O)c2cccc(Cl)c2)c1 [Example 131]
0.55 µM | Cc1cc(S(=O)(=O)Nc2cccc(C(=O)C=C(O)C(=O)O)c2)c(Cl)cc1Cl [Example 149]
0.48 µM | N#Cc1ccccc1S(=O)(=O)Nc1cccc(C(=O)C=C(O)C(=O)O)c1 [Example 72]
0.4 µM | O=C(O)C(O)=CC(=O)c1cccc(NS(=O)(=O)c2cccc([N+](=O)[O-])c2)c1 [Example 142]
0.29 µM | Cc1c(Cl)cccc1S(=O)(=O)Nc1cccc(C(=O)C=C(O)C(=O)O)c1 [Example 123]
0.17 µM | N#Cc1c(Cl)cccc1COc1cccc(C(=O)C=C(O)C(=O)O)c1 [Example 109]
0.1 µM | N#Cc1cccc(Cl)c1COc1cc(O)cc(C(=O)C=C(O)C(=O)O)c1 [Example 160]

same assay, conditions: Tables IXa-IXc; unit inferred; read-out: HCV (IC50)

Compound | IC50
Cc1cc(C)c(C(=O)C=C(O)C(=O)O)s1 [Example 192] | 8.2 µM
O=C(O)C(O)=CC(=O)c1cccc(OCc2cc(-c3ccccc3)on2)c1 [Example 103] | 6 µM
O=C(O)C(O)=CC(=O)c1cccn1Cc1ccc(O)cc1 [Example 179] | 12.8 µM
O=C(O)C(O)=CC(=O)c1cccc(OCc2ccsc2C(=O)O)c1 [Example 84] | 0.95 µM
O=C(Nc1ccccc1)Nc1cccc(C(=O)C=C(O)C(=O)O)c1 [Example 80] | 3 µM
N#Cc1ccc(-c2ccccc2)cc1COc1cccc(C(=O)C=C(O)C(=O)O)c1 [Example 116] | 0.3 µM

Now from value to compound:

IC50 | Compound
0.48 µM | N#Cc1ccccc1S(=O)(=O)Nc1cccc(C(=O)C=C(O)C(=O)O)c1 [Example 72]
0.17 µM | N#Cc1c(Cl)cccc1COc1cccc(C(=O)C=C(O)C(=O)O)c1 [Example 109]
0.1 µM | N#Cc1cccc(Cl)c1COc1cc(O)cc(C(=O)C=C(O)C(=O)O)c1 [Example 160]
